Measurements from patent US20110117164A1, “Use of Additive Sites to Control Nitric Oxide Release from Nitric Oxide Donors Contained within Polymers” (priority 2004, published 2011).

What was measured:
[1] = NO release from polymer films/coatings containing NO donor in PBS buffer at 37° C. by chemiluminescence; format: physicochemical
Method: Thermal stability of diazeniumdiolates. […] Kinetics. […] Use in Hydrophobic Systems.
In the absence of the KTpClPB, NO release decreases dramatically after approximately 1 hour. […] The decrease in NO release observed is believed to result from an increase in the pH within the organic polymer film, which decreases the decomposition rate of lipophilic diazeniumdiolates. As water diffuses into the film initiating NO release, secondary amine sites result. The secondary amine sites have a higher pKa than water and therefore deprotonate water to form hydroxide ions. The basic microdomain environment that results within the polymer, in turn, slows further decomposition of the remaining diazeniumdiolates that would generate NO. This retardation may occur as a result of the organic ammonium hydroxide microphases within the polymer, which in turn serves to stabilize the remaining diazeniumdiolates.
FT-IR were collected on Perken Elmer Spectrum VX. […] Elemental analyses were performed. Reagents. […] NO was purchased from Matheson Gases. […] General NO Addition Procedure. […] The products were finally collected and dried under vacuum. Molar Extinction Coefficients. […] The maximum wavelength and absorbance were collected. […] Kinetics Studies. […] The NO released was measured using chemiluminescence. […] Preparation of Polymer Films Containing Diazeniumdiolates. […] The membranes were covered and allowed to cure overnight. […] Polymerization to Form Boc-protected Diamine Copolymer.
General Procedure for Deprotection to Form Diamine Copolymer (c). 35 mg of the copolymer (b) was dissolved in 2 mL of dichloromethane and then 200 μL of TFA (trifluoroacetic acid) was added dropwise. The solution was stirred at room temperature for about 3 hours. The reaction mixture was diluted with 20 mL of dichloromethane, and the organic phase was then washed with sodium bicarbonate, water, and brine, and was dried with sodium sulfate. The solvent was evaporated and the resulting copolymer was dried under vacuum overnight. ^1H-NMR was performed to confirm the structure and actual composition of the copolymer. General Procedure for NO Loading to Form Polymer-Based NO Donor (d). 20 mg of the deprotected copolymer (c) was dissolved in 3 mL of dry THF and placed in a high pressure reactor with a stirring bar, and flushed with argon for about 10 minutes. 100% excess of sodium methoxide (with respect to free amine sites) was added and the reactor was closed. The reactor was purged with argon again for several times (e.g. ten times) over a 1 hour period and was charged with NO at 80 psi. The reaction mixture was stirred for 72 hours at room temperature. After the reaction was complete, the copolymer was precipitated with dry hexane under argon. The remaining solvent was removed using a vacuum, and the diazeniumdiolated copolymers (d) were examined by UV-Vis spectrum as well as NOA. This resulting copolymer was stored in sealed vials charged with argon in a freezer. Preparation of Polymer Films Containing Polymer-Based No Donor. Polymer membranes containing the polymer-based NO donor was prepared by dissolving 60.8 mg poly(vinyl chloride) (PVC), 30.4 mg dioctyl sebacate (DOS), and 9.1 mg poly(lactide-co-glycolide) (50:50) (PLGA 50:50) in 1.5 mL of freshly distilled tetrahydrofuran. […] A trilayer film configuration is employed to fabricate films. […] Four hours later the polymer cocktail was cast on top of the PVC layer. After another 4 hours, the PVC solution was cast again as a finish layer. The membrane was covered and allowed to cure overnight. Polymer films containing no additives were prepared in a similar manner. […] NO Release Measurements by Chemiluminescence. All NO measurements were performed using a Sievers Nitric Oxide Analyzer (NOA), model 280. The instrument was calibrated before each experiment using an internal two-point calibration (zero gas and 45 PPM). The flow rate was set to 200 mL/min with a cell pressure of 5.4 torr and an oxygen pressure of 6.0 psig. […]

CCCCNCCCCCCN(CCCC)/[N+]([O-])=N/O [Compound 2d, (Z)-1-{N-Butyl-N-[6-(N-butylammoniohexyl)amino]}-diazen-1-ium-1,2-diolate]
t1/2 ("apparent" t1/2 and t1/2) (buffer, pH 7.4): 4.95 ± 0.567 min
k (first order decomposition, PBS buffer, pH 7.4, 37° C., n > 3): 0.0025 ± 0.0002 s⁻¹
effect of doubling the NO donor amount ([1]; 4 wt. % vs 8 wt. % in 1:2 PVC/DOS film with KTpClPB): nearly doubles the surface flux and the NO release
effect of plasticizer on NO release ([1]; PVC/NPOE matrix compared with PVC/DOS matrix, with KTpClPB): higher initial NO release
effect of increasing polymer to plasticizer ratio on NO release ([1]; PVC:DOS increased from 1:2 to 2:1, films with KTpClPB): the NO release rate decreases and the release is prolonged
period of steady NO release ([1]; SR tubes coated with plasticized SR, 4.2 wt. % donor, 8.1 wt. % KTpClPB, PBS buffer at 37° C.): 40 h
total estimated NO released from the surface of the tube ([1]; SR tubes coated with plasticized SR, 4.2 wt. % donor, 8.1 wt. % KTpClPB, after 40 h in PBS buffer at 37° C.): 15%
time after which NO release decreases dramatically ([1]; plasticized PVC film, absence of KTpClPB): approximately 1 hour
effect of adding KTpClPB on NO release ([1]; plasticized PVC films, 1:1 mol ratio KTpClPB:donor, PBS pH 7.4, 37° C.): increases, prolongs, and helps to control the release of NO
total NO release profile from film without additive ([1]; ~5 wt. % in PVC film plasticized with DOS (1:2), PBS buffer, 37° C., no KTpClPB): never achieving theoretical total NO release
